Source: patent US20050009924A1 (priority 2003, published 2005)

How the values were obtained:
rat glioma C6 cells = assay: Cytotoxicity assay (XTT colorimetric), C6 cells; type: cell-based; details: Rattus norvegicus, C6; 48 h of drug exposure
human hepatoma G2 cells = assay: Cytotoxicity assay (XTT colorimetric), Hep G2; type: cell-based; details: Homo sapiens, HepG2; 48 h of drug exposure
[1] = MTT relative viability, PhTERT-SEAP (hTERT-BJ1) cells; details: human
[2] = MTT relative viability, PhTERT-SEAP (H1299) cells; details: human
[3] = system: iron-induced lipid peroxidation in rat brain homogenates; assay: Iron-induced lipid peroxidation in rat brain homogenates; details: 10 mM; mean percent inhibition (Table 3)
[4] = system: transcriptional activity of hTERT; assay: SEAP reporter assay of hTERT expression, PhTERT-SEAP (H1299); type: cell-based, human
Procedure, shortened: (§1)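 Cells seeded, grown 24 h at 37° C, refed, then exposed to varying drug amounts for another 24 h. Collected media heated 65° C for 10 min to kill heat-labile phosphatases, mixed with equal SEAP buffer (2 M diethanolamine, 1 mM MgCl2, 20 mM […]) plus 12 mM final p-nitrophenyl phosphate; rate of A405 increase measured.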

[5] = system: transcriptional activity of hTERT; assay: SEAP reporter assay of hTERT expression, PhTERT-SEAP (hTERT-BJ1); type: cell-based, human
Procedure, shortened: as §1

[6] = system: hepatitis B virus transfected hepatoma cell lines, HepG 2.2.15 cells; assay: Cytotoxicity assay, 2.2.15 cells; type: cell-based, human; details: Homo sapiens, HepG2.2.15; 48 h of drug exposure
[7] = hTERT-BJ1 cells, stable PhTERT-SEAP reporter clone

CCCC(=O)Oc1cccc2c1C(=O)c1cccc(OC(=O)CCC)c1C2=O [IIIb, 1,5-Bis(butyryloxy)-anthraquinone]
IC50 (rat glioma C6 cells): 38.5 ± 2.8 µM
melting point: 211 to 213 °C
IC50 (human hepatoma G2 cells): 0.02 ± 0.01 µM
viability at 48 h, 2.6 µM [1]: 109 ± 5.1%
viability at 48 h, 26 µM [1]: 106 ± 5.6%
viability at 48 h, 260 µM [1]: 85 ± 6.6%
viability at 48 h, 2.6 µM [2]: 107 ± 5.6%
viability at 48 h, 26 µM [2]: 106 ± 3.2%
viability at 48 h, 260 µM [2]: 87 ± 6.5%
Inhibition of LP(10 mM) [3]: 54 ± 2.2%
activity at 2.6 µM ([4]; Homo sapiens, NCI-H1299, 2.6 μM, H1299, read-out: Relative SEAP activity (%)): 114 ± 7.9%
activity at 26 µM ([4]; Homo sapiens, NCI-H1299, 26 μM, H1299, read-out: Relative SEAP activity (%)): 118 ± 8.4%
activity at 260 µM ([4]; Homo sapiens, NCI-H1299, 260 μM, H1299, read-out: Relative SEAP activity (%)): 111 ± 4.4%
activity at 2.6 µM ([5]; Homo sapiens, 2.6 μM, hTERT-BJ1, read-out: Relative SEAP activity (%)): 107 ± 11.9%
activity at 26 µM ([5]; Homo sapiens, 26 μM, hTERT-BJ1, read-out: Relative SEAP activity (%)): 119 ± 8.3%
activity at 260 µM ([5]; Homo sapiens, 260 μM, hTERT-BJ1, read-out: Relative SEAP activity (%)): 134 ± 3.8%

CCCCCC(=O)Oc1cccc2c1C(=O)c1cccc(OC(=O)CCCCC)c1C2=O [IIIc, 1,5-Bis(hexanoyloxy)-anthraquinone]
IC50 (rat glioma C6 cells): 39.1 ± 4.1 µM
melting point: 183 to 184 °C
IC50 (human hepatoma G2 cells): 36.2 ± 2.5 µM
viability at 48 h, 2.3 µM [1]: 119 ± 9.4%
viability at 48 h, 23 µM [1]: 98 ± 13.4%
viability at 48 h, 230 µM [1, 7]: 62 ± 6.4%
viability at 48 h, 2.3 µM [2]: 117 ± 5.1%
viability at 48 h, 23 µM [2]: 114 ± 4.7%
viability at 48 h, 230 µM [2]: 106 ± 4.3%
Inhibition of LP(10 mM) [3]: −55 ± 1.5^ %
activity at 2.3 µM ([4]; Homo sapiens, NCI-H1299, 2.3 μM, H1299, read-out: Relative SEAP activity (%)): 91 ± 9.9%
activity at 23 µM ([4]; Homo sapiens, NCI-H1299, 23 μM, H1299, read-out: Relative SEAP activity (%)): 95 ± 17.4%
activity at 230 µM ([4]; Homo sapiens, NCI-H1299, 230 μM, H1299, read-out: Relative SEAP activity (%)): 95 ± 10.5%
activity at 2.3 µM ([5]; Homo sapiens, 2.3 μM, hTERT-BJ1, read-out: Relative SEAP activity (%)): 147 ± 18.8%
activity at 23 µM ([5]; Homo sapiens, 23 μM, hTERT-BJ1, read-out: Relative SEAP activity (%)): 149 ± 16.1%
activity at 230 µM ([5]; Homo sapiens, 230 μM, hTERT-BJ1, read-out: Relative SEAP activity (%)): 124 ± 5.3%

O=C(Cc1ccc(F)cc1)Nc1ccc(NC(=O)Cc2ccc(F)cc2)c2c1C(=O)c1ccccc1C2=O [VI32, 1,4-Bis(4-fluorophenylacetamido)-9,10-anthracenedione]
IC50 (rat glioma C6 cells): > 20 µM
melting point: 228 to 230 °C
IC50 (human hepatoma G2 cells): > 20 µM
viability at 48 h, 1.9 µM [1, 7]: 107 ± 7.2%
viability at 48 h, 19 µM [1, 7]: 100 ± 6.3%
viability at 48 h, 195 µM [1, 7]: 96 ± 4.1%
IC50 [6]: > 20 µM
viability at 48 h, 1.9 µM [2]: 108 ± 8.8%
viability at 48 h, 19 µM [2]: 107 ± 7.5%
viability at 48 h, 195 µM [2]: 78 ± 8%
SEAP/vibility ([4]; 1.9 μM, PhTERT-SEAP(hTERT-H1299)): 1.00
SEAP/vibility ([4]; 19 μM, PhTERT-SEAP(hTERT-H1299)): 1.03
SEAP/vibility ([4]; 195 μM, PhTERT-SEAP(hTERT-H1299)): 1.39
activity at 1.9 µM ([4]; Homo sapiens, NCI-H1299, 1.9 μM, PhTERT-SEAP(hTERT-H1299), read-out: Relative SEAP activity (%)): 109 ± 10.8%
activity at 19 µM ([4]; Homo sapiens, NCI-H1299, 19 μM, PhTERT-SEAP(hTERT-H1299), read-out: Relative SEAP activity (%)): 109 ± 5.8%
activity at 195 µM ([4]; Homo sapiens, NCI-H1299, 195 μM, PhTERT-SEAP(hTERT-H1299), read-out: Relative SEAP activity (%)): 109 ± 6.6%
SEAP/vibility ([5]; 1.9 μM, PhTERT-SEAP (hTERT-BJ1)): 0.84
SEAP/vibility ([5]; 19 μM, PhTERT-SEAP (hTERT-BJ1)): 1.02
SEAP/vibility ([5]; 195 μM, PhTERT-SEAP (hTERT-BJ1)): 1.01
activity at 1.9 µM ([5]; Homo sapiens, 1.9 μM, PhTERT-SEAP (hTERT-BJ1), read-out: Relative SEAP activity (%)): 90 ± 18.4%
activity at 19 µM ([5]; Homo sapiens, 19 μM, PhTERT-SEAP (hTERT-BJ1), read-out: Relative SEAP activity (%)): 102 ± 20%
activity at 195 µM ([5]; Homo sapiens, 195 μM, PhTERT-SEAP (hTERT-BJ1), read-out: Relative SEAP activity (%)): 97 ± 11.6%

CCN(CC)CC(=O)Nc1ccc(NC(=O)CN(CC)CC)c2c1C(=O)c1ccccc1C2=O [VI33, 1,4-Bis[2-(diethylamino)acetamido]-9,10-anthracenedione]
IC50 (rat glioma C6 cells): 4.46 µM
melting point: 85 to 86 °C
IC50 (human hepatoma G2 cells): 0.65 µM
viability at 48 h, 2.1 µM [1, 7]: 105 ± 2.8%
viability at 48 h, 21 µM [1, 7]: 86 ± 3.5%
viability at 48 h, 215 µM [1, 7]: 32 ± 13.1%
IC50 [6]: 13 µM
viability at 48 h, 2.1 µM [2]: 105 ± 4.9%
viability at 48 h, 21 µM [2]: 87 ± 3.9%
viability at 48 h, 215 µM [2]: 44 ± 2.7%
SEAP/vibility ([4]; 2.1 μM, PhTERT-SEAP(hTERT-H1299)): 0.94
SEAP/vibility ([4]; 21 μM, PhTERT-SEAP(hTERT-H1299)): 0.99
SEAP/vibility ([4]; 215 μM, PhTERT-SEAP(hTERT-H1299)): 1.11
activity at 2.1 µM ([4]; Homo sapiens, NCI-H1299, 2.1 μM, PhTERT-SEAP(hTERT-H1299), read-out: Relative SEAP activity (%)): 98 ± 3.3%
activity at 21 µM ([4]; Homo sapiens, NCI-H1299, 21 μM, PhTERT-SEAP(hTERT-H1299), read-out: Relative SEAP activity (%)): 86 ± 7.4%
activity at 215 µM ([4]; Homo sapiens, NCI-H1299, 215 μM, PhTERT-SEAP(hTERT-H1299), read-out: Relative SEAP activity (%)): 48 ± 2.3%
SEAP/vibility ([5]; 2.1 μM, PhTERT-SEAP (hTERT-BJ1)): 1.06
SEAP/vibility ([5]; 21 μM, PhTERT-SEAP (hTERT-BJ1)): 1.40
SEAP/vibility ([5]; 215 μM, PhTERT-SEAP (hTERT-BJ1)): 2.61
activity at 2.1 µM ([5]; Homo sapiens, 2.1 μM, PhTERT-SEAP (hTERT-BJ1), read-out: Relative SEAP activity (%)): 111 ± 24.4%
activity at 21 µM ([5]; Homo sapiens, 21 μM, PhTERT-SEAP (hTERT-BJ1), read-out: Relative SEAP activity (%)): 120 ± 25.6%
activity at 215 µM ([5]; Homo sapiens, 215 μM, PhTERT-SEAP (hTERT-BJ1), read-out: Relative SEAP activity (%)): 83 ± 19%

CCN(CC)C(C)C(=O)Nc1ccc(NC(=O)C(C)N(CC)CC)c2c1C(=O)c1ccccc1C2=O (centres unmarked) [VI35, 1,4-Bis[2-(diethylamino)propionamido]-9,10-anthracenedione]
IC50 (rat glioma C6 cells): 18.1 µM
melting point: 175 to 177 °C
IC50 (human hepatoma G2 cells): 2.02 µM
viability at 48 h, 2 µM [1, 7]: 97 ± 3.9%
viability at 48 h, 20 µM [1, 7]: 52 ± 7.2%
viability at 48 h, 203 µM [1, 7]: 36 ± 5.8%
IC50 [6]: 8.57 µM
viability at 48 h, 2 µM [2]: 96 ± 7.9%
viability at 48 h, 20 µM [2]: 77 ± 7.2%
viability at 48 h, 203 µM [2]: 75 ± 4.6%
SEAP/vibility ([4]; 2.0 μM, PhTERT-SEAP(hTERT-H1299)): 1.00
SEAP/vibility ([4]; 20 μM, PhTERT-SEAP(hTERT-H1299)): 1.35
SEAP/vibility ([4]; 203 μM, PhTERT-SEAP(hTERT-H1299)): 0.98
activity at 2 µM ([4]; Homo sapiens, NCI-H1299, 2.0 μM, PhTERT-SEAP(hTERT-H1299), read-out: Relative SEAP activity (%)): 96 ± 14.3%
activity at 20 µM ([4]; Homo sapiens, NCI-H1299, 20 μM, PhTERT-SEAP(hTERT-H1299), read-out: Relative SEAP activity (%)): 104 ± 6%
activity at 203 µM ([4]; Homo sapiens, NCI-H1299, 203 μM, PhTERT-SEAP(hTERT-H1299), read-out: Relative SEAP activity (%)): 73 ± 11.7%
SEAP/vibility ([5]; 2.0 μM, PhTERT-SEAP (hTERT-BJ1)): 0.41
SEAP/vibility ([5]; 20 μM, PhTERT-SEAP (hTERT-BJ1)): 0.94
SEAP/vibility ([5]; 203 μM, PhTERT-SEAP (hTERT-BJ1)): 0.61
activity at 2 µM ([5]; Homo sapiens, 2.0 μM, PhTERT-SEAP (hTERT-BJ1), read-out: Relative SEAP activity (%)): 40 ± 14.5%
activity at 20 µM ([5]; Homo sapiens, 20 μM, PhTERT-SEAP (hTERT-BJ1), read-out: Relative SEAP activity (%)): 49 ± 9.3%
activity at 203 µM ([5]; Homo sapiens, 203 μM, PhTERT-SEAP (hTERT-BJ1), read-out: Relative SEAP activity (%)): 22 ± 6.6%
